# Test results reported in BindingDB's records for doi:10.7270/Q2TX3CTT (Broad Institute, 2010).
# pEC50: −log10 of the molar value. Where a name gives a salt, the structure may show the parent alone.
# Biological target: Glycogen synthase kinase-3 beta (Homo sapiens, UniProt P49841)
# Assay: GSK3beta kinase inhibitor potency, dose response, biochemical, luminescence, cell-free homogeneous, retest (AID 434954)
# Glycogen synthase kinase-3 beta, sequence (P49841 whole entry): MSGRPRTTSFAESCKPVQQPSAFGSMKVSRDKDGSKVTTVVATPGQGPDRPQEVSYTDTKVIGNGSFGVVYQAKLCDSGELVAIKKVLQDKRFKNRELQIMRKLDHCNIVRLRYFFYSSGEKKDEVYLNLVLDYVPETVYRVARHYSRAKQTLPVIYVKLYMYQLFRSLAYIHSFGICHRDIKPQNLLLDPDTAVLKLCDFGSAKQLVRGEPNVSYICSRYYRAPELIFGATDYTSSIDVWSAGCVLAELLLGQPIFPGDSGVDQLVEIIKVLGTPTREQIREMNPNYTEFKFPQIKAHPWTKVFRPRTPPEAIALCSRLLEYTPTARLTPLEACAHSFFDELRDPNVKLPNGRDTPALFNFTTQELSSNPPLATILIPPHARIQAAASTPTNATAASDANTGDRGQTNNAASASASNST
row,Structure (SMILES),pEC50
1,"COc1ccc(OC)c(Nc2nc(N)c([N+](=O)[O-])c(NCc3ccccc3)n2)c1 [N2-(2,5-dimethoxyphenyl)-5-nitro-N4-(phenylmethyl)pyrimidine-2,4,6-triamine]",< 3.52
2,COc1ccc(C(=O)N/C(=C\c2ccco2)C(=O)NCCN2CCOCC2)cc1 [MLS000923740],< 3.52
3,CN(C)c1ccc(/N=N/c2ccc(S(N)(=O)=O)cc2)cc1,< 3.52
4,OCC1(Cc2ccccc2)CCN(Cc2ccc(-c3ccco3)cc2)CC1 [[1-[[4-(2-furanyl)phenyl]methyl]-4-(phenylmethyl)-4-piperidinyl]methanol],< 3.52
5,Cc1[nH]nc2c1C(c1cccs1)C1C(=O)CCCC1=N2 (stereo unspecified) [MLS001003570],4.97
6,N#Cc1c(Nc2ccccc2)sc(C(=O)c2ccccc2)c1N [4-azanyl-2-phenylazanyl-5-(phenylcarbonyl)thiophene-3-carbonitrile],4.28
7,CC(C)Nc1nc(N=C(N)S)nc(NC(C)C)n1,< 3.52
8,O=C(Nc1nccs1)C1CCCN1S(=O)(=O)c1cccc2cccnc12 (stereo unspecified) [SMR000096012],4.52
9,CCn1c(SCC(=O)Nc2cc(Cl)ccc2OC)nnc1C1CC1 [MLS001220637],< 3.52
10,COc1ccc(C(=O)/C=C2/C(=O)Nc3ccccc32)c(OC)c1 [SMR000543845],< 3.52
11,COc1ccc(C(=O)c2coc3ccc(O)c(CN(C)C)c23)cc1 [MLS000115878],< 3.52
12,"CCSc1nnc(NC(=O)CSc2nnc(CNC(=O)c3cc(OC)c(OC)c(OC)c3)o2)s1 [N-[[5-[2-[(5-ethylsulfanyl-1,3,4-thiadiazol-2-yl)amino]-2-oxoethyl]sulfanyl-1,3,4-oxadiazol-2-yl]methyl]-3,4,5-trimethoxybenzamide]",< 3.52
13,Cc1nc(Nc2ccccc2)sc1C(=O)Nc1ccccc1,< 3.52
14,CCOC(=O)C1C(C(F)(F)F)=Nc2ncnn2C1c1cc(OC)ccc1OC (stereo unspecified),< 3.52
15,Cc1ccc(OCC(=O)NN=Cc2ccccc2)c([N+](=O)[O-])c1 [2-(4-methyl-2-nitro-phenoxy)-N-[(phenylmethylidene)amino]ethanamide],< 3.52
16,CC(C)N1CCc2c(sc(NC(=O)Cc3ccccc3)c2C(N)=O)C1,< 3.52
17,Nc1nc(Nc2ccccc2)nc(NCc2ccccc2)c1[N+](=O)[O-],4.88
18,O=NCc1ccc(Oc2ccc(F)cc2)c([N+](=O)[O-])c1 [N-[[4-(4-fluorophenoxy)-3-nitrophenyl]methylidene]hydroxylamine],4.64
19,"COC(=O)c1ccc2nc(NC(=O)C3CC3)sc2c1 [2-(cyclopropanecarbonylamino)-1,3-benzothiazole-6-carboxylic acid methyl ester]",< 3.52
20,"CCCN(CCC)Cc1c(C(=O)NN=CCCc2ccccc2)nnn1-c1nonc1N [1-(4-amino-1,2,5-oxadiazol-3-yl)-5-[(dipropylamino)methyl]-N-(3-phenylpropylideneamino)-4-triazolecarboxamide]",5.13
21,Cn1cc(S(=O)(=O)NCc2ccc(F)cc2)c(=O)n(C)c1=O,< 3.52
22,COc1cccc2cc(C(=O)NCc3ccc(C)cc3)c(=O)oc12 [8-methoxy-N-(4-methylbenzyl)-2-oxo-2H-chromene-3-carboxamide],< 3.52

row,Structure (SMILES),pEC50
1,O=C(Nc1ccsc1C(=O)NC1CC1)c1ccccc1 [MLS000546913],5.00
2,"Oc1ccc(CN=Nc2ccc(C(F)(F)F)cn2)cc1O [(4Z)-2-hydroxy-4-[[2-[5-(trifluoromethyl)pyridin-2-yl]hydrazinyl]methylidene]cyclohexa-2,5-dien-1-one]",4.79
3,CCOC(=O)CSc1nnc(-c2cccs2)n1-c1ccccc1,< 3.52
4,"CC(C)=CCc1c(O)ccc(C2COc3c(CC=C(C)C)c(O)cc(O)c3C2=O)c1O (stereo unspecified) [3',8-diprenyldalbergioidin]",< 3.52
5,"COc1ccc(OC)c(Nc2nc(NCc3ccco3)nc(N)c2[N+](=O)[O-])c1 [N'-(2,5-Dimethoxy-phenyl)-N-furan-2-ylmethyl-5-nitro-pyrimidine-2,4,6-triamine]",< 3.52
6,"c1c2c(cc3sc(N4CCOCC4)nc13)OCCO2 [2-(4-morpholinyl)-6,7-dihydro-[1,4]dioxino[2,3-f][1,3]benzothiazole]",< 3.52
7,CC1=Nc2nnnn2C(c2sccc2C)C1C(N)=O (stereo unspecified) [MLS000528936],< 3.52
8,"COc1ccc(/C=C2/SC(NS(=O)(=O)Cc3ccccc3)=NC2=O)cc1OC [N-[(5E)-5-[(3,4-dimethoxyphenyl)methylidene]-4-oxo-2-thiazolyl]-1-phenylmethanesulfonamide]",< 3.52
9,COC(CSc1nc(N)c2c3c(sc2n1)CN(C)CC3)OC [SMR000543145],< 3.52
10,"COc1cccc(-c2ccc3nnc(SCC(=O)Nc4ccc(NC(C)=O)cc4)n3n2)c1 [N-(4-acetamidophenyl)-2-[[6-(3-methoxyphenyl)-[1,2,4]triazolo[4,3-b]pyridazin-3-yl]sulfanyl]ethanamide]",< 3.52
11,Nc1nc(NCc2ccco2)nc(NCCO)c1[N+](=O)[O-],< 3.52
12,O=C(Nc1ccccn1)Nc1ccccc1Cl,< 3.52
13,COc1ccc(-c2nn(-c3ccccc3)cc2CO)cc1 [MLS000534260],< 3.52
14,"O=C(CN1C(=O)CCC1=O)Nc1ccc(Cc2ccc(NC(=O)CN3C(=O)CCC3=O)cc2)cc1 [2-(2,5-dioxo-1-pyrrolidinyl)-N-[4-[[4-[[2-(2,5-dioxo-1-pyrrolidinyl)-1-oxoethyl]amino]phenyl]methyl]phenyl]acetamide]",< 3.52
15,COc1cccc2cc(C(=O)CS(=O)(=O)c3ccc(C)cc3)c(=O)oc12 [8-methoxy-3-[2-(4-methylphenyl)sulfonylethanoyl]chromen-2-one],< 3.52
16,O=C(Nc1ccnc(-c2cccnc2)n1)c1ccc(Cl)c(Cl)c1 [MLS000327684],< 3.52
17,"CCN1CCN(c2ccc(S(=O)(=O)N3CCOCC3)cc2NC(=O)c2ccc(Cl)cc2Cl)CC1 [2,4-bis(chloranyl)-N-[2-(4-ethylpiperazin-1-yl)-5-morpholin-4-ylsulfonyl-phenyl]benzamide]",< 3.52
18,"O=C(Nc1nc2ccc(Cl)cc2s1)C1CC1 [N-(6-chloranyl-1,3-benzothiazol-2-yl)cyclopropanecarboxamide]",4.36
19,CCCCc1cc(=O)oc2cc(C)cc(OCC(=O)O)c12 [2-(4-butyl-7-methyl-2-oxochromen-5-yl)oxyacetic acid],< 3.52
20,"CCn1nc(NC(=O)C2CCCO2)c2cc3cccc(C)c3nc21 (stereo unspecified) [Tetrahydro-furan-2-carboxylic acid (1-ethyl-8-methyl-1H-pyrazolo[3,4-b]quinolin-3-yl)-amide]",< 3.52
21,Cc1ccc(-c2nn(-c3ccccc3)cc2CN=O)cc1 [N-[[3-(4-methylphenyl)-1-phenylpyrazol-4-yl]methylidene]hydroxylamine],6.25
22,"Cc1ccc2nc3c(cc2c1)c(NC(=O)c1ccco1)nn3CC(C)C [Furan-2-carboxylic acid (1-isobutyl-6-methyl-1H-pyrazolo[3,4-b]quinolin-3-yl)-amide]",< 3.52

row,Structure (SMILES),pEC50
1,COc1ccc2occ(C(C)=O)c2c1 [1-(5-methoxy-3-benzofuranyl)ethanone],< 3.52
2,O=C(Nc1ccc(O)c2c(=O)cc(-c3ccccc3Cl)oc12)c1ccc(F)cc1 [N-[2-(2-chlorophenyl)-5-oxidanyl-4-oxidanylidene-chromen-8-yl]-4-fluoranyl-benzamide],4.86
3,COc1ccccc1NC(=S)NC1CCCCCCCCCCC1 [SMR000460399],< 3.52
4,CN(Cc1c(C(=O)NN=Cc2cccc(O)c2)nnn1-c1nonc1N)C1CCCCC1 [MLS001142859],6.15
5,"COc1cccc2c1cc1c(=O)n(CC(=O)NCc3ccccn3)nc(C)n12 [2-(9-methoxy-4-methyl-1-oxo-[1,2,4]triazino[4,5-a]indol-2-yl)-N-(pyridin-2-ylmethyl)acetamide]",< 3.52
6,"CCc1n[nH]c(SCC(=O)Nc2ccc(Br)cn2)n1 [N-(5-bromanylpyridin-2-yl)-2-[(5-ethyl-1H-1,2,4-triazol-3-yl)sulfanyl]ethanamide]",4.76
7,NC(=S)NN=Cc1cn(CCC(=O)O)nc1-c1cccc(Br)c1 [3-[3-(3-bromophenyl)-4-[(carbamothioylhydrazinylidene)methyl]-1-pyrazolyl]propanoic acid],< 3.52
8,Nc1nc(NCc2ccco2)nc(Nc2cccc(F)c2)c1[N+](=O)[O-] [SMR000436034],< 3.52
9,COc1cc(C(=O)N2CCN(c3ccccn3)CC2)cc(OC)c1OC [SMR000518691],4.34
10,Cc1[nH]nc2c1C(c1ccc(N(C)C)cc1)C1C(=O)CC(C)(C)CC1=N2 (stereo unspecified) [SMR000343282],4.55
11,"CC1(C)CC(=O)C=C(Nc2cccc(Cl)c2Cl)C1 [3-[(2,3-dichlorophenyl)amino]-5,5-dimethylcyclohex-2-en-1-one]",< 3.52
12,Cc1ccc(-n2c(N)c(C(=O)NCc3cccnc3)sc2=S)cc1 [MLS000535145],< 3.52
13,"Cc1ccnc(SCCn2c(N3CCOCC3)nc3c2c(=O)[nH]c(=O)n3C)n1 [3-methyl-7-[2-(4-methylpyrimidin-2-yl)sulfanylethyl]-8-morpholin-4-ylpurine-2,6-dione]",< 3.52
14,"c1ccc(-c2nc(NCCCn3ccnc3)c3oc4ccccc4c3n2)cc1 [N-[3-(1-imidazolyl)propyl]-2-phenyl-4-benzofuro[3,2-d]pyrimidinamine;hydrochloride]",4.46
15,CCOC(=O)c1nnn(CC(=O)Nc2cccc(OC)c2)c1C(=O)OCC,< 3.52
16,CN(C)S(=O)(=O)c1cc(NC(=O)CN2CCN(c3ccc(O)cc3)CC2)ccc1Cl [MLS000774170],< 3.52
17,"COc1ccc(N2CCN(CC(O)COc3c(OC)cccc3OC)CC2)cc1 (stereo unspecified) [1-(2,6-dimethoxyphenoxy)-3-[4-(4-methoxyphenyl)piperazin-1-yl]propan-2-ol;hydrochloride]",< 3.52
18,CC(c1ccccc1)n1c(CCCO)nc2ccccc21 (stereo unspecified) [3-[1-(1-Phenyl-ethyl)-1H-benzoimidazol-2-yl]-propan-1-ol],< 3.52
19,O=C1CC(O)(C(F)(F)F)Oc2c1ccc1ccccc21 (stereo unspecified) [2-oxidanyl-2-(trifluoromethyl)-3H-benzo[h]chromen-4-one],< 3.52
20,"O=[N+]([O-])c1ccc(N2CCCCCC2)c([N+](=O)[O-])c1 [1-(2,4-Dinitro-phenyl)-azepane]",< 3.52
21,NS(=O)(=O)c1ccc(CCNC(=O)CSc2nc3ccsc3c(=O)n2C2CC2)cc1 [MLS000586542],< 3.52
22,N#Cc1ccccc1NC(=O)CSc1nnc(-c2ccncc2)o1,< 3.52
